In patent US20120065123A1, “Synthetic Antibodies” (priority 2009, published 2012):
Where no end group is shown, it is not given here.

Columns and labels:
TNF-α [1] = molecular target: T1, TNF-α (Homo sapiens, UniProt P01375); assay: SPR of TNF1 lead and mutant peptides on captured TNF-α (Biacore A100); type: binding; details: several sensorgrams; read-out: Kd determined from kinetic fits
TNF-α [2] = molecular target: T1, TNF-α; assay: as above; type: binding
Description: Scanning Mutagenesis of the TNF1 Lead Peptide. After lead identification, the next step in the AMPLI algorithm is characterization of point mutations in the lead heteropolymer. Using short peptides makes it chemically feasible to synthesize a significant fraction of the point-mutant space, which can then be screened for enhanced point mutations. For example, all possible point mutations in the 17 randomized positions using all 20 natural amino acids could be synthesized and screened within a single 384-well plate (323 total point-mutants). However, libraries containing all 20 natural amino acids are not required for affinity optimization of protein-protein interactions. A library of TNF1 point-mutants containing all substitutions of the amino acid set {Y, A, D, S, K, N, V, W} in each of the 17 randomized positions (132 unique point-mutants) was synthesized. Tyrosine (Y), alanine (A), aspartic acid (D) and serine (S) were selected because of their effectiveness in producing high affinity interactions when substituted into the complementary-determining regions (CDRs) of synthetic antibodies (Felouse, Proceedings of the National Academy of Sciences 101(34):12467, 2004), lysine (K) was selected to balance the charge in the substitution set, asparagine (N), valine (V) and tryptophan (W) were selected to span the hydropathicity range (Kyte J & Doolittle R F, Journal of Molecular Biology 157(1):105-132, 1982). […] This concentration was used to increase the high-end dynamic range for quantifying enhancing point mutations at the expense of low-end dynamic range for quantifying detrimental point mutations.
Point-mutant libraries were prepared in 96-well stock plates From the stock plate, peptides were diluted to 50 μM concentration in Biacore HBS-EP buffer (GE Healthcare, Piscataway, N.J.) containing 1 mg/ml carboxymethyl-dextran (Sigma-Aldrich, St. Louis, Mo.) to reduce non-specific binding to the CM-5 SPR chip surface. TNF-α was captured on a CM-5 chip surface at different capture levels on spots 1, 2, 4, and 5 across all four flow cells corresponding to a 40-200 RU range of predicted Rmax binding responses. Spot 3 contained only immobilized neutravidin and served as a reference spot.
Using the prepared 96-well plates and Biacore A100 SPR instrument, four peptides were flowed separately, in parallel, through the four flow cells over all 4 TNF-α spots and the neutravidin reference spot, with a 60 second association phase and 300 second dissociation phase. SPR sensorgrams were recorded for each peptide response with all 4 TNF-α spots and the neutravidin reference spot across the four flow cells on the SPR chip. Surface regeneration was performed after every 12 injections in each flow cell with Biacore Glycine 2.5 regeneration solution (GE Healthcare, Piscataway, N.J.). Point-mutant reference subtracted, peptide molecular weight adjusted, responses at the late binding region of the sensorgram (a few seconds before dissociation) were compared to the response of the TNF1 lead
Purified point-mutant affinities were measured on the Biacore A100 using SPR equilibrium binding response across a series of peptide concentrations on an SPR chip with TNF-α captured as described above.
These sequences were synthesized and purified using standard solid-phase FMOC synthesis and HPLC purification.

TNF-α [3] = molecular target: T1, TNF-α; assay: Fluorescence anisotropy validation of TNF1-opt affinity; type: binding
Protocol: Affinity Characterization of Double, Triple and Quadruple Mutants. […] In all cases, an improvement in TNF-α affinity was observed when an additional enhancing substitution was added to the sequence. Double mutants were better than the corresponding single mutants, triple mutants were better than the corresponding single/double mutants and the quadruple mutant was better than the corresponding single/double/triple mutants (FIG. 71, Table 2).

Transferrin [4] = molecular target: T2, Transferrin (Homo sapiens, UniProt P02787); assay: SPR analysis of peptide pairs for binding to distinct sites on target; details: peptides applied in 1:1 mixtures in pairs
Description: The transferrin target was immobilized on a Biacore T100 SPR chip, and candidate polypeptides were applied in 1:1 mixtures in pairs and response data obtained, in accordance with the methods described in Example 4 above. As illustrated in FIGS. 12A-D, upon flowing candidate polypeptides over the immobilized target, ideally one polypeptide applied alone would bind to a first binding site on the target and produce a first characteristic SPR response level (FIG. 12A), the other polypeptide would bind to a second, distinct binding site on the target, producing a second characteristic response level (FIG. 12B), and a mixture of the two polypeptides together (at the same concentrations as before) would produce a response level approximating the sum of the response levels produced by each polypeptide alone, as the polypeptides bind to distinct binding sites (FIG. 12C).

Transferrin [5] = molecular target: T2, Transferrin; assay: SPR solution phase KD of candidate affinity elements, transferrin immobilized (Biacore T100); type: binding; details: steady-state response, 25° C., PBST
Protocol: Transferrin 25 μg/ml in immobilization buffer selected for correct pH was then applied 302 at a flow rate of 5 to 10 μl/min for a contact time of about 5 to 10 minutes, allowing the amine functionality on the transferrin 308 to displace the activated NHS ester and bond to the surface via an amide bond. Finally, ethylene diamine (1M ethylene diamine-HCl at pH 8.5) was applied 304 at a flow rate of 5 to 10 μl/min for a contact time of about 6 to 7 minutes to deactivate any remaining reactive groups on the dextran chip surface. Flow rates and contact times are adjusted as necessary to provide the surface concentration of target desired for the intended application, and may vary by target. In general, for evaluating whether binding occurs, it is preferable to immobilize a relatively large quantity of target, and higher flow rates and/or longer contact times may be used. For determining kinetics, it is preferable to limit the amount of target immobilized so as to minimize rebinding and avidity effects, and lower flow rates and/or contact times may be used.
Candidate affinity elements for the transferrin synbody TRF19, TRF21, TRF23, TRF24, TRF25, and TRF26 were individually evaluated for solution phase KD with respect to transferrin by SPR analysis. Because the off rates for these polypeptides were very high, KD values were estimated by measuring steady-state response for at least five concentrations in a two-fold dilution series, each concentration tested in duplicate. For each experiment, response data were processed using a reference surface to correct for bulk refractive index changes and any non-specific binding. Data were also double referenced using responses from blank running buffer injections. Each experiment was conducted at 25° C. using PBST (0.01M Phosphate Buffered Saline, 0.138M NaCl, 0.0027M KCl, 0.05% surfactant Tween20, pH 7.4) as the running buffer on a Biacore T100 instrument. Analytes were injected for 60 s at a flow rate of 30 μl/min. The antigen surfaces were regenerated with 30 s consecutive pulses of NaOH/NaCl (50 mM NaOH in 1M NaCl) and Glycine (10 mM glycine-HCl, pH 2.5).

Transferrin [6] = molecular target: T2, Transferrin; assay: Affinity characterization of TRF26 lead and selected mutants; type: binding
Protocol: Two TRF26 point-mutants (P6Y, H12F) were selected for further affinity characterization. The P6Y and H12F point-mutants have dissociation constants of 8.6±1.6 μM and 9.8±1.6 μM respectively. […] A TRF26 double mutant sequence containing the P6Y+H12F mutations was synthesized and characterized.

Transferrin [7] = molecular target: T2, Transferrin; assay: Peptide microarray ranking, labeled transferrin with E. coli lysate competitor; type: binding
Protocol: Several polypeptides were identified as candidate affinity elements for synbodies against an arbitrarily chosen protein target, transferrin, by incubating transferrin on the polypeptide microarray in the presence of E. coli lysate competitor. Transferrin was randomly direct-labeled at free amines with Alexa™ 555, and E. coli lysate was randomly direct-labeled at free amines with Alexa™ 647. Three replicate arrays were passivized by applying a mixture of BSA and mercaptohexanol for one hour. The arrays were blocked with unlabelled E. coli lysate for one hour, then washed three times with TBST (0.05% Tween) followed by three times with water. A mixture of labeled transferrin and labeled E. coli lysate was applied to the three replicate arrays and incubated for three hours. The arrays were again washed three times with TBST (0.05% Tween) followed by three times with water, and scanned at 555 nm and 647 nm using an array reader. Polypeptides were ranked as candidates for inclusion as affinity elements of synbodies by computing a score for each polypeptide equal to the mean raw 555 nm intensity over the six replicate features, squared, divided by the mean raw 647 nm intensity over the six replicate features. This simple scoring function tends to favor candidate polypeptides that bind at least moderate affinity, since otherwise the 555 nm intensity would be relatively lower, and that are relatively specific, since otherwise the 647 nm intensity would be relatively higher and contribute to a relatively lower score. Many variations of this ranking and identification process can be used, such as, by way of non-limiting examples, two-color comparisons against other competitors; comparisons with data taken in separate experiments with respect to other targets; and use of scoring functions taking into account other factors, employing other functional relationships, and/or involving statistical analysis and/or preprocessing of data and/or correcting for background fluorescence and/or other factors affecting the accuracy of the measured intensities. Ten polypeptides (Table 1) were identified for further evaluation for use as affinity elements in synbodies by choosing the polypeptides having the highest score (one polypeptide was rejected as difficult to synthesize, so the polypeptides chosen were ten of those having the eleven highest scores).
After preparation of the array in accordance with the methods previously described in Example 2, the array was washed one time for five minutes in 7.33% acetonitrile, 37% isopropanol, 0.55% trifluoroacetic acid, and 55% water. Alexa 555 labeled target protein transferrin was applied, together with Alexa 647 labeled E. coli lysate competitor, to the prewashed array and to an identical array without organic prewash. […] 5,010 on the array without organic prewash, but ranked no. 9601 on the prewashed array. Conversely, peptide TRF-21, shown by SPR analysis to be a relatively strong binder of transferrin, rose in rank from 84 on the non-prewashed array to rank no. 5 on the prewashed array.

T2 sequence (P02787 20-698): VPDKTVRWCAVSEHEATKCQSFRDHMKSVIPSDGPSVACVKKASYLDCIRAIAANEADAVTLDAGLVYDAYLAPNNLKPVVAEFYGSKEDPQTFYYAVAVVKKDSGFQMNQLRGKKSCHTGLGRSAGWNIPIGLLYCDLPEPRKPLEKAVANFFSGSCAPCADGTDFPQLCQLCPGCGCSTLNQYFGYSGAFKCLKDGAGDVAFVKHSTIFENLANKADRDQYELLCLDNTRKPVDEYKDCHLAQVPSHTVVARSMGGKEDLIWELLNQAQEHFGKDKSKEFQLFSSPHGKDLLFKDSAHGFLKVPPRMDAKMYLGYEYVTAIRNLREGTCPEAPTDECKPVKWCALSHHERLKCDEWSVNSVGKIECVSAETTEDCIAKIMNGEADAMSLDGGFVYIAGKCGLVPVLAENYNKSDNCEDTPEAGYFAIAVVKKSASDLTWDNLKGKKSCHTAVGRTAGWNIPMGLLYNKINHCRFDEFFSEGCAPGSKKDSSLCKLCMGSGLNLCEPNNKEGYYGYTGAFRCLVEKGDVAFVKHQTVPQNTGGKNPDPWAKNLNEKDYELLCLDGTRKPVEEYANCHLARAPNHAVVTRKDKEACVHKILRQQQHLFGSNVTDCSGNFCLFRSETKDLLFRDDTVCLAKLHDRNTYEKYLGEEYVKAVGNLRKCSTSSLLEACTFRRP
T1 sequence (P01375 77-233 limits assumed, species assumed): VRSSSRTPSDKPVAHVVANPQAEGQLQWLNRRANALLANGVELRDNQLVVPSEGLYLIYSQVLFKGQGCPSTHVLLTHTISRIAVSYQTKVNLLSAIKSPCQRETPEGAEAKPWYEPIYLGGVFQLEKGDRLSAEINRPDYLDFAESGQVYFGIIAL

Kd (TNF-α [1]) | Kd Fold-Change Relative to Lead (TNF-α [2]) | Kd (TNF-α [2]; SPR equilibrium binding response, read-out: Kd (observed)) | Binding ΔG (observed) (TNF-α [2]; calculated from dissociation constants) | Kd (TNF-α [2]; energetic additivity of component mutations, read-out: Predicted Kd) | Kd (TNF-α [3]) | binding to distinct sites on transferrin (Transferrin [4]) | Kd (Transferrin [5]) | Binding ΔG (observed) (Transferrin [6]) | Rank -- prewash (Transferrin [7]; array with organic prewash) | Rank - non-prewash (Transferrin [7]; array without organic prewash) | Sequence
700 ± 20 nM | 100 ± 22 | 1600 ± 300 nM | -7.97 ± -0.11 kcal/mol | 700 to 1900 nM | 1100 ± 200 nM |  |  |  |  |  | FERSYLKMPWKFLQSRQGSC [TNF1-opt]
 |  |  |  |  |  | bind distinct sites on transferrin | ~100000 nM | -5.56 ± 0.10 kcal/mol | 436 | 596 | AHKVVPQRQIRHAYNRYGSC [TRF26]
